Test results: US20040106143A1, “Monoclonal antibody against estrogen stimulated leucine aminopeptidase” (priority 2000, published 2004)

Columns and labels:
es-LAPase = es-LAPase enzyme kinetic inhibition assay (1-leucine-β-naphthylamide substrate); type: biochemical, human; conditions: for effect on es-LAPase activity / reaction rate (FIG. 2): 167 μM Bestatin, 167 μM reduced Glutathione, 17 μM reduced thioredoxin, versus control es-LAPase; for Vmax of es-LAPase in presence of inhibitor / Km / Ki: Bestatin 167 μM, Glutathione 167 μM, Thioredoxin 17 μM; for Vmax of es-LAPase in presence of inhibitor: LAPase alone 36.8 ± 1.9; for mode of es-LAPase inhibition: from Vmax, Km and Ki analysis; for Km: LAPase alone 1.67 ± 0.14, read-out: Km of es-LAPase in presence of inhibitor; for Ki: read-out: Ki (inhibition constant)
Protocol: The kinetic assays were performed using a Spectronic Genesys 5 spectrophotometer from Milton Roy (Rochester, N.Y.). Absorbance was recorded every sixty seconds, over a period of 30 min. Enzyme kinetic assays were performed using 8.0×10^−2 U of es-LAPase in a final reaction volume of 600 μl and triplicate samples. […] A corresponding blank without es-LAPase was used as baseline. Both of the cuvettes were transferred to the spectrophotometer where the 1-leucine-β-naphthylmide solution was added last, marking time zero of the reaction.

[1] = tested on: LAPase (purified preparations obtained from Sigma); test: LAPase activity of purified enzyme preparations incubated with 17-β-Estradiol; type: biochemical; conditions: 100 nM 17-β-Estradiol, 24 hrs
Protocol: Purified preparations of the enzyme obtained from Sigma were incubated with 100 nM 17-β-Estradiol for 24 hrs. LAPase activity was determined fluorometrically using leucine-β-naphthylamide as the substrate as described by Kuramochi et al. [Kuramochi, H. et al., (1987) J. Antibiot., 401605-1611].

[2] = tested on: primary parental breast carcinoma cells; test: LAPase release into cell supernatants following estrogen stimulation; type: cell-based, human
Protocol: Primary parental breast carcinoma cells were incubated with 100 nM 17-β-Estradiol for 24 hrs and cell media alone as a control. LAPase in supernatants was isolated using MAb 7B6(IgG1a)-protein-G-LAPase beads prepared by covalently cross-linking the monoclonal antibody. LAPase activity of the LAPase-immunoprecipitated supernatants was determined fluorometrically using leucine-β-naphthylamide as the substrate as described by Kuramochi et al. [Kuramochi, H. et al., (1987) J. Antibiot., 401605-1611].
During the same period, LAPase in cell supernatants of control cells remain unchanged. In addition, LAPase activity was determined in supernatants of primary parental cell lines immunoprecipitated with MAb 7B6(IgG1a)-protein-G-LAPase matrix bound antibodies. […] In addition, there was no effect of estrogen incubation on LAPase activity in purified preparations of this enzyme alone.

Molecule | effect on es-LAPase activity / reaction rate (FIG. 2) (es-LAPase) | Vmax of es-LAPase in presence of inhibitor (es-LAPase) | mode of es-LAPase inhibition (es-LAPase) | Km (es-LAPase) [µM] | Ki (es-LAPase) [nM] | effect of estrogen incubation on LAPase activity in purified preparations of the enzyme alone [1] | extracellular LAPase activity of estrogen stimulated cells ([2]; 100 nM, 24 hours, supernatants immunoprecipitated with MAb 7B6-protein-G matrix, control with media alone 6.4×10^−6 U/ml) | estrogen concentration of maximum release / optimal activation of LAPase ([2]; 24 hours of incubation, dose-dependent) [nM]
CC(C)C[C@H](NC(=O)[C@@H](O)[C@H](N)Cc1ccccc1)C(=O)O [Bestatin] | clearly inhibits es-LAPase activity | 34.0 ± 3.9 10^−6 M/min | competitive |  |  |  |  | 
N[C@@H](CCC(=O)N[C@@H](CS)C(=O)NCC(=O)O)C(=O)O [Glutathione] | significant slower rates of reaction | 17.2 ± 1.5 10^−6 M/min | noncompetitive | 178 ± 25 | 1530 ± 400 |  |  | 
C[C@]12CC[C@@H]3c4ccc(O)cc4CC[C@H]3[C@@H]1CC[C@@H]2O [estrogen, 17-β-Estradiol] |  |  |  |  |  | no effect | 7.7×10^−5 U/ml | 100
Thioredoxin: thiol-containing peptide; human Thioredoxin purified from CD4+T MP6 cells, compared to E. coli Thioredoxin from Sigma-Aldrich (protein, UniProt P10599 2-105, looked up) Thioredoxin: VKQIESKTAFQEALDAAGDKLVVVDFSATWCGPCKMIKPFFHSLSEKYSNVIFLEVDVDDCQDVASECEVKCMPTFQFFKKGQKVGEFSGANKEKLEATINELV | significant slower rates of reaction | 5.31 ± 0.02 10^−6 M/min | uncompetitive | 23.4 ± 0.6 | 3400 ± 580 |  |  | 
